Data reported in patent US10543132B2, “Absorbent article with blood modifying agent” (UNICHARM CORPORATION, priority 2011, dated 2020).

Tests used:
[1] = Text: As used herein, the term “solubility” in regard to water solubility includes cases where the sample completely dissolves in deionized water to form a homogeneous mixture, and cases where the sample is completely emulsified. As used herein, “completely” means that no mass of the sample remains in the deionized water.
[2] = at 20° C.; cited from earlier work
[3] = Surface tension of blood containing blood modifying agent, pendant drop method (Example 6); details: sheep defibrinated blood; amount 0.10 mass %; 35 ° C.; without agent 62.1
Protocol: The surface tension of blood containing a blood modifying agent was measured by the pendant drop method, using a Drop Master500 contact angle meter by Kyowa Interface Science Co., Ltd. The surface tension was measured after adding a prescribed amount of blood modifying agent to sheep defibrinated blood, and thoroughly shaking. The measurement was accomplished automatically with a device, and the […] γ was determined by the following formula (see FIG. 4). γ=g×ρ×(de)^2×1/H The density ρ was measured at the temperatures listed in Table 5, according to JIS K 2249-1995, “Density test methods and density/mass/volume conversion tables”, “5. Vibrating density test method”. The measurement was accomplished using a DA-505 by Kyoto Electronics Co., Ltd.

Water solubility [1] [g] | Compound | further results
<0.05 | CCCCC(CC)C(=O)OCC(C)(C)COC(=O)C(CC)CCCC (stereo not shown) [H-208BRS, Neopentylglycol di-2-ethylhexanoate] | 
<0.05 | CCCCCCCC(=O)OCC(COC(=O)CCCCCCC)OC(=O)CCCCCCC [PANACET 800] | 
 | CC(C)CCCCCCCCCCCCCCCOC(=O)CC(O)C(=O)OCCCCCCCCCCCCCCCC(C)C (stereo not shown) [Diisostearyl malate, Diisostearyl Malate] | Water solubility (g) [1]: 20< g
 | CCCCC(=O)CCCC [5-nonanone] | vapor pressure [2]: about 230 Pa
<0.05 | CCCCC(CC)C(=O)OCC(COC(=O)C(CC)CCCC)OC(=O)C(CC)CCCC (stereo not shown) [PANACET 800B] | 
<0.05 | CCCCOC(=O)CC(CC(=O)OCCCC)(OC(C)=O)C(=O)OCCCC [Tributyl O-acetylcitrate, Tributyl O-Acetylcitrate] | 
 | CCCCCCCCCCCCOC(=O)CCCCCCCCCCC [ELECTOL WE20, Ester of dodecanoic acid (C12) and dodecyl alcohol (C12)] | Surface tension (mN/m) [3]: 58.8 mN/m
